Test results published in patent publication US20150119329A1, “MODULATION OF ANGIOTENSIN II RECEPTORS FOR THE PREVENTION AND TREATMENT OF MALARIA CEREBRAL” (NEW YORK UNIVERSITY, priority 2012, published 2015).
Peptide text beside a SMILES is read from it.

How the values were obtained:
P. berghei ANKA [1] = assay: Brain histopathology (hemorrhages, blood brain barrier integrity) in cerebral malaria mouse model; type: in vivo; details: Losartan 10 mg/Kg/d, CGP-42112A 500 ng/min/kg
Description: Cerebral Malaria Experimental Mouse Model. Female C57BL/6J mice were obtained from Taconic Farms Inc. All mice were maintained under barrier conditions. Water and normal laboratory diet were available ad libitum. The infection was performed by inoculating i.p. 10^6 infected erythrocytes with P. berghei ANKA. All procedures involving animals conformed to the Guide for the Care and Use of Laboratory Animals published by US National Institutes of Health (NIH Publication No. 85-23, revised 1985) and were performed with the approval of the Animal Care and Use Committee at the University of New York. Alzet osmotic minipumps (Model 1002; ALZA Scientific Products, Mountain View, Calif., USA) were implanted into C57BL/6J mice at 4 months of age. Pumps were filled either with saline vehicle or solution of CGP-42112A (Sigma Chemical Co.) that delivered (subcutaneously) at 500 ng/min/kg for the duration of the study. Pumps were placed into the subcutaneous space of subcutaneous bupivacaine anesthetized mice through a small incision on the animal back slightly posterior of the shoulder blades that was closed with Reflex 7 mm wound closure system (ALZA Scientific Products, Mountain View, Calif., USA).

[2] = system: human brain microvascular endothelial cells (HBMECs); assay: iRBC-induced disruption of interendothelial junctions and detachment of HBMEC monolayer (nuclei count, PrestoBlue viability); type: cell-based; details: P. falciparum iRBCs over HBMECs, 18 hours; compound 10^−5 M
Description: Cell viability assay. To assess the viability of the adherent HBMECs PrestoBlue Cell Viability Reagent (Invitrogen) was utilized. […] After 18 hours, the plates were washed twice with PBS, and PrestoBlue Cell Viability Reagent diluted 1:10 with medium, was added. Samples were then incubated for 3 hours at 37° C. PrestoBlue is reduced from blue resazurin to red resorufin in the presence of viable cells. The absorbance (595 nm) was read with a Victor X3 plate reader.

P. berghei ANKA [3] = assay: Cerebral malaria experimental mouse model (development of cerebral malaria, mortality); type: in vivo; details: C57BL/6J mice infected with P. berghei ANKA; Losartan 10 mg/Kg/d in drinking water; compared with vehicle treatment

SMILES	quantification of hemorrhages in brain histological slices (P. berghei ANKA [1]; brains of infected mice (FIG. 4))	structure of the brain vessels and integrity of the blood brain barrier (BBB) (P. berghei ANKA [1]; brains of infected mice, Hematoxillin/Eosin, versus untreated groups)	damage to HBMECs caused by rupture and release of iRBCs, compared to control [2]	reduction of mortality (P. berghei ANKA [3])
CC[C@H](C)[C@H](NC(=O)[C@@H]1CCCN1C(=O)[C@H](Cc1c[nH]cn1)NC(=O)[C@H](CCCCNC(=O)[C@H](CCCNC(=N)N)NC(=O)OCc1ccccc1)NC(=O)[C@H](Cc1ccc(O)cc1)NC(=O)c1cccnc1)C(=O)O [CGP-42112A, (25,35)-2-[[(25)-1-[(25)-2-[[(25)-6-[[(25)-5-(diaminomethylideneamino)-2-(phenylmethoxy-carbonylamino)pentanoyl]amino]-2-[[(25)-3-(4-hydroxyphenyl)-2-(pyridine-3-carbonylamino)propanoyl]amino]hexanoyl]amino]-3-(1H-imidazol-5-yl)propanoyl]pyrrolidine-2-carbonyl]amino]-3-methylpentanoic acid] (HELM PEPTIDE1{[O=C(c1cccnc1)[*:2]].Y.K.H.P.I}|PEPTIDE2{[O=C(OCc1ccccc1)[*:2]].R}$PEPTIDE1,PEPTIDE2,3:R3-2:R2$$$V2.0)	protective effect	better maintained	20%	–
CCCCc1nc(Cl)c(CO)n1Cc1ccc(-c2ccccc2-c2nnn[nH]2)cc1 [Losartan, (2-butyl-4-chloro-1-{[2′-(1H-tetrazol-5-yl)biphenyl-4-yl]methyl]-1H-imidazol-5-yl)methanol]	–	–	–	4-5 times
